Data: patent US11845770B2, “Ascaroside derivatives and methods of use” (California Institute of Technology, priority 2019, dated 2023)

Experiments:
CYP2C9 = molecular target: T1, CYP2C9 (Homo sapiens, UniProt P11712); test: 5 in 1 CYP inhibition assay, CYP2C9; type: in vitro ADME; details: microsomes, probe diclofenac (4′-hydroxylation), test compound 10 μM, n=2, read-out: inhibition of cytochrome P450 isoform 2C9
T1 construct: from tissue
Description: (§1) CYP450 dependent activities were determined using a marker substrate cocktail. For each reaction, enzyme activities in the presence and absence of test compound (10 μM) were measured in duplicate. A known inhibitor for each isoform, tested at a single concentration (3 μM, n=2), was included as positive control. Incubation mixtures containing microsomes, substrate, and standard inhibitor or test compound were warmed at 37° C. for 10 minutes. Reactions were initiated by addition of the NADPH and incubated for 10 min. [table] After incubation, ice cold acetonitrile was added to terminate the reaction. Generation of metabolites from the substrate reactions was determined by LC-MS/MS.

CYP3A4 = molecular target: T2, CYP3A4 (Homo sapiens, UniProt P08684); test: 5 in 1 CYP inhibition assay, CYP3A4; type: in vitro ADME; details: microsomes, probe midazolam (1′-hydroxylation), test compound 10 μM, n=2, read-out: inhibition of cytochrome P450 isoform 3A4
T2 construct: from tissue
T2 sequence (P08684 whole entry, canonical isoform): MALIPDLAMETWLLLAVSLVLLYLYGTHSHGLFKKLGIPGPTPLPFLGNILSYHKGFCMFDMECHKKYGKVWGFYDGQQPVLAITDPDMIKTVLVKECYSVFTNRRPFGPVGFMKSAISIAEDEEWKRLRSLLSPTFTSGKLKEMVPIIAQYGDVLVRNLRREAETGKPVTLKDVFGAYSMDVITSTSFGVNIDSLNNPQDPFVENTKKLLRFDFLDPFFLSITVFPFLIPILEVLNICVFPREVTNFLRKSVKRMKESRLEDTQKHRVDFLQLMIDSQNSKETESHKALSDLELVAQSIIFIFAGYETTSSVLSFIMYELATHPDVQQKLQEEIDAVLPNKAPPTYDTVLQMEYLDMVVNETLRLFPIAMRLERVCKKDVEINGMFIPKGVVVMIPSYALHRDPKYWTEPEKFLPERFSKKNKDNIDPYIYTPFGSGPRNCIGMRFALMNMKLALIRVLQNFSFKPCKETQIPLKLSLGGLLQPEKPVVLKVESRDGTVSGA
Description: as §1

[1] = system: BEAS-2B human lung epithelial cells; test: Stimulation of BEAS-2B human lung epithelial cells, cytokine expression; type: cell-based; details: 48 h
Description: BEAS-2B cells were maintained in Bronchial Epithelial Cell Growth Basal Medium (BEBM) containing all the recommended supplements for the Bronchial Epithelial Cell Growth Medium (BEGM; Lonza #CC-4175) and allowed to attain approximately 70% confluency with media changed every 2-3 days at 37° C. with 5% (v/v) CO2. Tissue culture flasks/vessels were pre-coated with a mixture of 0.01 mg/mL fibronectin (Sigma), 0.03 mg/ml bovine collagen type I (Sigma) and 0.01 mg/mL bovine serum albumin dissolved in the BEBM. BEAS-2B cells were seeded with 0.5 ml of 1×10^6 cells/mL in BEGM per well on 24-well plates and incubated overnight at 37° C. with 5% (v/v) CO2. The cells are pre-treated with different concentrations of compounds (0, 1.0, 10, 100, 1000 μM) for 1 hour prior to stimulation. To stimulate the cells, 10 ng/mL of Interleukin-1 beta (IL-1β), 10 ng/mL of Lipopolysaccharides (LPS), or 20 ng/mL of IL-1$ is added to the wells without removing the media and incubated for 48 hours at 37° C. with 5% (v/v) CO2. Supernatants were collected and stored at −80° C. until quantitative detection assays are performed. Human Eotaxin, Monocyte Chemoattractant Protein-1 (MCP-1), Interleukin-6 (IL-6), Interleukin-25 (IL-25), Interleukin-33 (IL-33), Thymic stromal lymphopoietin (TSLP), and Granulocyte-Macrophage Colony-Stimulating Factor (GM-CSF) released from supernatants collected post stimulation were measured using Human Magnetic Luminex® Assay Kit. Human CCL5/RANTES was measured using an Enzyme-Linked Immunosorbent Assay (ELISA)-based analysis.

[2] = Stability in hepatocytes (human); type: in vitro ADME; details: cryopreserved human hepatocytes (suspension)
Description: 10 mM of 1 was provided as a 1000× stock solution in dimethylsulfoxide (DMSO), and the stock solution was diluted to 1 mM with DMSO in 96-well plates. 30 mM of positive compounds (7-ethoxycoumarin and 7-hydroxycoumarin) were provided as a 1000× stock solution in DMSO, and the stock solution was diluted to 3 mM with DMSO in 96-well plates. 20 μL of 1000× stock solution of each compound were pipetted and was mixed with 380 μL of 45% MeOH/H2O to obtain 50 μM of 1 and 150 μM of the positive control compound solutions to form 50× intermediate solutions. 20 μL of 50× intermediate solution of each compound were pipetted and was mixed with […] of pre-warmed incubation medium to obtain 5 μM of 1 and 15 μM of the positive control compound solutions to form 5× working solutions. The incubation medium was Williams' Medium E (no phenol red) containing 2 mM L-glutamine and 25 mM HEPES. 10 μL of 5× working solutions of each compound were pipetted into appropriate wells in a 96-well plate for time points of 0 minutes, 15 minutes, 30 minutes, 60 minutes, and 90 minutes in duplicates. The plates with compounds were kept warm in an incubator at 37° C.
A cell suspension was prepared by thawing cryopreserved cells, isolating the cells, and suspending the cells in thawing medium. […]
The remaining percentage of 1 after incubation was calculated according to the following equation. […]

[3] = 10 ng/mL IL-1β, compound concentration series, FIG. 10A
[4] = 10 ng/mL IL-1β, compound concentration series, FIG. 10B
[5] = at 100 μM, 10 ng/mL IL-1β, FIG. 10A
[6] = at 100 μM, 10 ng/mL IL-1β, FIG. 10B
[7] = 10 ng/mL LPS, compound concentration series, FIG. 11A
[8] = 10 ng/mL LPS, compound concentration series, FIG. 11B

T1 sequence (P11712 whole entry, canonical isoform): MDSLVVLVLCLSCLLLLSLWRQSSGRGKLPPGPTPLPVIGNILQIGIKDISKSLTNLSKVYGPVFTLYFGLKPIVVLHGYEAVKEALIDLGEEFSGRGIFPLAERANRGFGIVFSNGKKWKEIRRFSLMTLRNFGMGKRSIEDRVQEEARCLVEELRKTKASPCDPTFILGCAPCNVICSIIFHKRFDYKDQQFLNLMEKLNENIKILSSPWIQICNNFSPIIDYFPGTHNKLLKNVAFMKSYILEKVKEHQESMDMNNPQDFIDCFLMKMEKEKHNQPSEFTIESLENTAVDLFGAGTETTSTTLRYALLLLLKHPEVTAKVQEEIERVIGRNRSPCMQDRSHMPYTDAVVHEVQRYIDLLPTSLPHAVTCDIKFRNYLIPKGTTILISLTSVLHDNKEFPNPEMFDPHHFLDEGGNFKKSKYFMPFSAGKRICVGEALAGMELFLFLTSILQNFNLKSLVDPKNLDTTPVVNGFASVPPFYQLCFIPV

C[C@H](CC/C=C/C(=O)OC(C)(C)C)O[C@@H]1O[C@@H](C)[C@H](O)C[C@H]1O [Compound 1, tert-butyl (2E,6R)-6-{[(2R,3R,5R,6S)-3,5-dihydroxy-6-methyloxan-2-yl]oxy}hept-2-enoate]
inhibition at 10 min, 10 µM (CYP2C9): 4.3% | inhibition at 10 min, 10 µM (CYP3A4): 1% | percent inhibition relative to Stimulated of IL-25 expression [1, 3]: statistically significant, dose-dependent inhibition | percent inhibition relative to Stimulated of Eotaxin expression [1, 4]: statistically significant, dose-dependent inhibition | percent inhibition relative to Stimulated of IL-6 expression [1, 5]: statistically significant, complete inhibition | percent inhibition relative to Stimulated of IL-8 expression [1, 5]: statistically significant, complete inhibition | percent inhibition relative to Stimulated of IL-25 expression [1, 5]: statistically significant, complete inhibition | percent inhibition relative to Stimulated of IL-33 expression [1, 5]: statistically significant, complete inhibition | percent inhibition relative to Stimulated of GM-CSF expression [1, 6]: statistically significant, complete inhibition | percent inhibition relative to Stimulated of MCP-1 expression [1, 6]: statistically significant, complete inhibition | percent inhibition relative to Stimulated of TSLP expression [1, 6]: statistically significant, complete inhibition | inhibition of expression of multiple inflammatory cytokines (IL-6, IL-8, IL-25, IL-33) ([1]; at 100 μM, 10 ng/mL LPS, FIG. 11A): complete, statistically significant inhibition | inhibition of expression of multiple inflammatory cytokines (GMCSF, MCP-1, TSLP) ([1]; at 100 μM, 10 ng/mL LPS, FIG. 11B): statistically significant, complete inhibition | half-life at 1 µM [2]: 1.77 h

C[C@H](CC/C=C/C(=O)O)O[C@@H]1O[C@@H](C)[C@H](O)C[C@H]1O [ascr #7, reference compound]
inhibition at 10 min, 10 µM (CYP2C9): 0% | inhibition at 10 min, 10 µM (CYP3A4): 0% | percent inhibition relative to Stimulated of IL-6 expression [1, 3]: did not show convincing inhibition | percent inhibition relative to Stimulated of IL-8 expression [1, 3]: did not show convincing inhibition | percent inhibition relative to Stimulated of IL-25 expression [1, 3]: statistically significant, dose-dependent inhibition | percent inhibition relative to Stimulated of IL-33 expression [1, 3]: did not show convincing inhibition | percent inhibition relative to Stimulated of Eotaxin expression [1, 4]: statistically significant, dose-dependent inhibition | percent inhibition relative to Stimulated of GM-CSF expression [1, 4]: did not demonstrate convincing inhibition | percent inhibition relative to Stimulated of MCP-1 expression [1, 4]: did not demonstrate convincing inhibition | percent inhibition relative to Stimulated of TSLP expression [1, 4]: did not demonstrate convincing inhibition | percent inhibition relative to Stimulated of IL-6 expression [1, 7]: did not show convincing inhibition | percent inhibition relative to Stimulated of IL-8 expression [1, 7]: did not show convincing inhibition | percent inhibition relative to Stimulated of IL-25 expression [1, 7]: did not show convincing inhibition | percent inhibition relative to Stimulated of IL-33 expression [1, 7]: did not show convincing inhibition | percent inhibition relative to Stimulated of GM-CSF expression [1, 8]: did not show convincing inhibition | percent inhibition relative to Stimulated of MCP-1 expression [1, 8]: did not show convincing inhibition | percent inhibition relative to Stimulated of TSLP expression [1, 8]: did not show convincing inhibition | percent inhibition relative to Stimulated of IL-25 expression ([1]; 20 ng/mL IL-1β, compound concentration series, FIG. 12): statistically significant, dose-dependent blocking | percent inhibition relative to Stimulated of Eotaxin expression ([1]; at 10 and 100 μM, 20 ng/mL IL-1β, FIG. 13): statistically significant, almost complete blocking | half-life at 1 µM [2]: > 3.61 h
